The values below come from ChEMBL document CHEMBL1201862, “PubChem BioAssay data set” (2004).

The source made the active and inactive calls.

Assay [1] addresses T1, Endoribonuclease toxin MazF (Escherichia coli K-12, UniProt P0AE70).
T1 sequence (P0AE70 whole entry): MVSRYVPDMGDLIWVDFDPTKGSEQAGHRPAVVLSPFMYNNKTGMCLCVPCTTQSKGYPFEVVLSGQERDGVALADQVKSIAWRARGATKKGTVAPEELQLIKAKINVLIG
Briefly: MazF toxin RNase activators, dose response, biochemical, fluorescence, single-stranded RNA substrate, uHTS hits (AID 588481). It counts as functional.

Assay [2] has as its target T1, Endoribonuclease toxin MazF. Briefly: fluorescent RNA oligo signal without MazF, dose response, counter-screen for MazEF activator project, biochemical, fluorescence, single-stranded RNase substrate (AID 588502). It counts as functional. In general terms: A counterscreen serves to expose hits that act by an unwanted route or on another target.
The target in assay [3] is T2, Sentrin-specific protease 1 (Homo sapiens, UniProt Q9P0U3).
T2 sequence (Q9P0U3 whole entry): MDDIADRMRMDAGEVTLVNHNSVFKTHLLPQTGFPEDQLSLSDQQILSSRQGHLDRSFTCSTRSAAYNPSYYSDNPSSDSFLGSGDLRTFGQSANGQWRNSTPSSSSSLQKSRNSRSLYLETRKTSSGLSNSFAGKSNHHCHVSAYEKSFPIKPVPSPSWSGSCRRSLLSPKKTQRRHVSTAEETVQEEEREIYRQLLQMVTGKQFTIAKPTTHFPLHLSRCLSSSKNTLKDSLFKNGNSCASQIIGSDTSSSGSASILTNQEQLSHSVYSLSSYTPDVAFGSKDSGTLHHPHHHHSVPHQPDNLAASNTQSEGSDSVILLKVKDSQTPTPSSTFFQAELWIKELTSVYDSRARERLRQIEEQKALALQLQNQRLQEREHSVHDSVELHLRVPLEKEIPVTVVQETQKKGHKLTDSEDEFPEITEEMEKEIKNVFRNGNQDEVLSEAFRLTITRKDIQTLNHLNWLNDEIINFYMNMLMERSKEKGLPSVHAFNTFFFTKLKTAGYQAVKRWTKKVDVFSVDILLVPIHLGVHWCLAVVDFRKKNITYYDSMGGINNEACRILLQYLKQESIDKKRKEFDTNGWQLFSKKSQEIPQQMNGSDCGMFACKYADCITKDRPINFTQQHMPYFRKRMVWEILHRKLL
Briefly: Dose response confirmation of small molecule inhibitors of the catalytic domain of the SUMO protease, SENP1 in a FRET assay. Conditions: read-out: IC50_Mean. Type of assay: functional.

Assay [4] concerns the target T3, Rac GTPase-activating protein 1 (Homo sapiens, UniProt Q9H0H5).
T3 sequence (Q9H0H5 whole entry): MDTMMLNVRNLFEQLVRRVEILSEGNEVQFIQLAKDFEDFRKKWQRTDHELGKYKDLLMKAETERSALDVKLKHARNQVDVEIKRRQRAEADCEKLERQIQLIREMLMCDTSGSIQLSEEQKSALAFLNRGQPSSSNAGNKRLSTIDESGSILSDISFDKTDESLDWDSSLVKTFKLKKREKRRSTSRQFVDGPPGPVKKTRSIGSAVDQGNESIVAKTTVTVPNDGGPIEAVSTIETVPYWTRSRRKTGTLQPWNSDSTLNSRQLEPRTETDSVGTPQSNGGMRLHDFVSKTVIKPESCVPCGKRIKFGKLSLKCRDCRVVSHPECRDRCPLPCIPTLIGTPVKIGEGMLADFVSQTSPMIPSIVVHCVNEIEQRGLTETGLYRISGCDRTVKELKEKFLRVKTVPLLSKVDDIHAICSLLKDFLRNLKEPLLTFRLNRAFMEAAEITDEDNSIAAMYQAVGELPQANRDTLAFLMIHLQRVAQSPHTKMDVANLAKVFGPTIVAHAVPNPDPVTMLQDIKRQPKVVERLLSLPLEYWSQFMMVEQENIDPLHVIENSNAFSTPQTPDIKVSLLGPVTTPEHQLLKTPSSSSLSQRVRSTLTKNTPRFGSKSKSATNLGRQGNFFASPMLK
Briefly: MgcRacGAP GTPase-activating activity inhibitors, confirmation, biochemical, ADP Hunter fluorescence, primary and confirmatory (AID 624330). Type of assay: functional.

Assay [5] addresses T4, Histone-lysine N-methyltransferase NSD2 (Homo sapiens, UniProt O96028).
T4 sequence (O96028 whole entry): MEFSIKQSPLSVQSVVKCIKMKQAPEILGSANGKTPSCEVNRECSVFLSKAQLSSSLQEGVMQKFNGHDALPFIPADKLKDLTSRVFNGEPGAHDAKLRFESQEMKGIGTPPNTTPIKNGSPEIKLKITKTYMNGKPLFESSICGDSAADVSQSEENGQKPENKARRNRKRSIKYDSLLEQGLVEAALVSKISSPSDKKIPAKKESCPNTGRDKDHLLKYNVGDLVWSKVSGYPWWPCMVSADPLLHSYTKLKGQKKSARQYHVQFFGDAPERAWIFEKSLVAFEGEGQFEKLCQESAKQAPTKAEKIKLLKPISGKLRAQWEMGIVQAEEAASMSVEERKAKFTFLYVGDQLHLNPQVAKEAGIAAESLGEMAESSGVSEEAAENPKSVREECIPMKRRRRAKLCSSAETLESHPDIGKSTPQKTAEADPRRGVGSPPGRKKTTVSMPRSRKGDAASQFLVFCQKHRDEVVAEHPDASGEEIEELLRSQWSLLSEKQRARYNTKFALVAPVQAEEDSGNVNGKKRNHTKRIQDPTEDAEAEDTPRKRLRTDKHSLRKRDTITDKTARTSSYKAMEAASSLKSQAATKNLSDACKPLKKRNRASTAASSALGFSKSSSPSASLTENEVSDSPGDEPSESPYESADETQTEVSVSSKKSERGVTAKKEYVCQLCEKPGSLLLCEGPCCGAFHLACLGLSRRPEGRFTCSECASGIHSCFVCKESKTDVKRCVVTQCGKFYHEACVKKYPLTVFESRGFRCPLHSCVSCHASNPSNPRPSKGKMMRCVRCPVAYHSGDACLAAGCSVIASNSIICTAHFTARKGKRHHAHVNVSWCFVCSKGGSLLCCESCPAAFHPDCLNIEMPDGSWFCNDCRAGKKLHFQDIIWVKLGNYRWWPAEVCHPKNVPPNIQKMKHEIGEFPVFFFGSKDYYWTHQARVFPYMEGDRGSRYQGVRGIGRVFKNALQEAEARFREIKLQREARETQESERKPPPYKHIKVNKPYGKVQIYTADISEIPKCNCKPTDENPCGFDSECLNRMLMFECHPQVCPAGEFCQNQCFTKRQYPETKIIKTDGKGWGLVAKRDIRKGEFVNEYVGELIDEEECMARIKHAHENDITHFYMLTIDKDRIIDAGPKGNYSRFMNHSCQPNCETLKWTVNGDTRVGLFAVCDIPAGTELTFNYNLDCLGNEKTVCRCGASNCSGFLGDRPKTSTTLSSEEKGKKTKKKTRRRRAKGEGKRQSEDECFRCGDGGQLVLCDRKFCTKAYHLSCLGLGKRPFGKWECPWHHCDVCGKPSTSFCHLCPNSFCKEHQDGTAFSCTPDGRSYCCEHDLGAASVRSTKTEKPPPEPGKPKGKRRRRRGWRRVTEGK
It counts as biochemical.

In assay [6] the target is T5, Tyrosyl-DNA phosphodiesterase 2 (Homo sapiens, UniProt O95551).
T5 sequence (O95551 whole entry): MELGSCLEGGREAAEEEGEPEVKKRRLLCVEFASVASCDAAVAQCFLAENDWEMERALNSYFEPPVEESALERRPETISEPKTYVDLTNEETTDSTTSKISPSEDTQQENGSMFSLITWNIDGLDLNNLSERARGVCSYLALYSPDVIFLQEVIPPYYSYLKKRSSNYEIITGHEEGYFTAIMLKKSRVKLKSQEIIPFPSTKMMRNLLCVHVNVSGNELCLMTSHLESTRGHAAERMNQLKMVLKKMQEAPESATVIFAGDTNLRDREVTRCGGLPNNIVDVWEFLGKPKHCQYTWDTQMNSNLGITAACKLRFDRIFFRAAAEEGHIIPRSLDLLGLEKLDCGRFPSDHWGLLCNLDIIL
The experiment in a line: human TDP2 enzyme inhibitors, dose response, biochemical, epi absorbance, IC50 (AID 743297).

Assay [7] in a line: HeLa cell cytotoxicity, dose response, cytotoxicity control for MgcRacGAP inhibitor project (AID 624300). Type of assay: functional.
Assay [8] in a line: AlphaScreen signal interference compounds, dose response, artefact control for ARNT-TACC3 interaction inhibitor project, biochemical, luminescence, cherry-pick (AID 651705).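 Note: AlphaScreen bead proximity signal that flags compounds interfering with the detection technology; potency reflects signal decrease which marks the compound as an assay artifact.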 It counts as functional. (In general: Bead proximity is the source of the signal in Alpha formats.)
The target of another assay is Galanin receptor type 3 (Homo sapiens, UniProt O60755). Briefly: Fluorescence-based cell-based primary high throughput dose response assay to identify antagonists of the Galanin Receptor 3 (GalR3). Type of assay: functional.
Assay [9] can be described thus: cells. Conditions: HEK-CNG. It counts as functional, cell-based.
Assay [10] can be described thus: human group III sPLA2 inhibitors, dose response, biochemical, QFRET, IC50 (AID 743457).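 Note: green fluorescence rise as the enzyme cleaves BODIPY PC-A2 in liposomes; potency for inhibition of the enzyme.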
The test system of assay [11] is Streptococcus sp. 'group A'. Briefly: growth inhibition of control SK(-) GAS strain, dose response, counter-screen for streptokinase expression inhibitor project, luminescence, kanamycin, BacTiterGlo, confirmation (AID 1900). It counts as functional, organism-based.
The next assay has as its system Streptococcus. The experiment in a line: Group A Streptococcus viability loss, dose response, counter-screen for streptokinase expression inhibitor project, luminescence, BacTiterGlo (AID 1915).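 Note: potency for reduction of bacterial viability or growth.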 Type of assay: functional, organism-based.
Assay [12] in a line: HEK293T cytotoxicity, dose response, cytotoxicity control for miR-122 modulator project, cell-based, inhibitor set, cherry-pick, set 2 (AID 720697). It counts as functional.
A short description of assay [13]: cells. It counts as functional, cell-based.
The nature of assay [14]: cells. It counts as functional, cell-based. This is another data set of the same source.
Assay [15] is described as follows: cells. It counts as functional, cell-based. The source holds these as a separate data set.
A short description of assay [16]: cells. It counts as functional, cell-based. The source holds these as a separate data set.
Assay [17] in a line: HEK293T cytotoxicity, dose response, cytotoxicity control for miR-122 modulator project, cell-based, activator set, cherry-pick (AID 720690).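 Note: HEK293T human cells scored for general mammalian cytotoxicity.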 It counts as functional.

Galanin receptor type 3, sequence (O60755 whole entry): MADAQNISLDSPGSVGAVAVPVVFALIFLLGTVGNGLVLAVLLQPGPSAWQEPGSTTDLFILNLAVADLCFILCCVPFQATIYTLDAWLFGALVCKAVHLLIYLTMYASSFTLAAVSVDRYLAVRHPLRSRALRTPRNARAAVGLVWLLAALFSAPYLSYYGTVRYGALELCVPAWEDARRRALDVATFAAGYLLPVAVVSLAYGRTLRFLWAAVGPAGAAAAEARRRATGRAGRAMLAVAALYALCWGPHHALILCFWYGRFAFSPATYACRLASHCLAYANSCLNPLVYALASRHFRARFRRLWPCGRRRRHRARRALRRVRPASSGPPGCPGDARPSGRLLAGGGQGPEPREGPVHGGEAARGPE

What is called EC50 is the concentration that produces a half-maximal response. `Oc1ccc(Cl)cc1C1=Nc2ccccc2N=C(c2ccco2)C1`: the EC50 in assay [1] and in assay [2] was > 99 µM (inactive) in each case. In [3], the IC50 was 8.31 µM (active).

A word on the AC50: it is the concentration at which the activity in the assay is half-maximal. In general, CC50 refers to the concentration that lowers cell viability or growth by half. For the molecule `COc1cc(CCNC2=CC(=O)c3ncccc3C2=O)ccc1O`, the IC50 in [4] is 62.2 µM (active); in assay [6] it was 67.8 µM (inactive). Further, the AC50 in assay [5] was 1.24 µM (active); in assay [8], 82.2 µM (active). In assay [7], the CC50 is 21.3 µM (active).

As for `CSc1ccc(CN2CCN(C(=O)c3ccc([N+](=O)[O-])cc3)CC2)cc1`, the IC50 at Galanin receptor type 3 was 1.91 µM (active). The EC50 in the assay “cells [9]” is > 29.9 µM (inactive).

`O=C(Cc1ccccc1)NNC(=S)NC(=O)c1cccs1`: in [10], the IC50 was > 122 µM (inactive). Further, the EC50 is 3.33 µM (active) in assay [11] and 7.51 µM (active) with Streptococcus.

For the molecule `CCn1c(S)nnc1-c1csc(C(C)C)c1`, the IC50 in assay [10] is > 122 µM (inactive).

Regarding `C=CCNC(=S)NNC(=O)Cn1c(-c2ccccc2)cc(=O)n2ncnc12`, in assay [12], the AC50 was 4.83 µM (active).

As to `CCN1CN(CCc2ccccc2)CN=C1S`, in the assay “cells [13]”, the IC50 is > 29.9 µM (inactive). The EC50 in the assay “cells [14]” is > 350 µM (not active); in “cells [15]”, > 29.9 µM (inactive); in “cells [16]” it was > 350 µM (not active).

Regarding `CC(=O)c1ccc(Nc2nc3ccc(C)cc3n3cnnc23)cc1`, the AC50 in assay [17] was 551 nM (active).
